Where two headings read alike, the source gives them in different places.
System: NL-RLuc virus
Assay: Inhibition of HIV replication (NL-RLuc luciferase reporter virus in MT-2 cells)
Assay type: cell-based
Conditions: Human immunodeficiency virus 1, MT2, 120 h
Text: Inhibition of HIV Replication:
A recombinant NL-RLuc proviral clone was constructed in which a section of the nef gene from NL4-3 was replaced with the Renilla Luciferase gene. This virus is fully infectious and can undergo multiple cycles of replication in cell culture. In addition, the luciferous reporter provides a simple and easy method for quantitating the extent of virus growth and consequently, the antiviral activity of test compounds. The plasmid pNLRLuc contains the proviral NL-Rluc DNA cloned into pUC 18 at the PvuII site. The NL-RLuc virus was prepared by transfection of 293T cells with the plasmid pNLRLuc. Transfections were performed using the LipofectAMINE PLUS kit from Invitrogen (Carlsbad, Calif.) according to the manufacturer and the virus generated was titered in MT-2 cells. For susceptibility analyses, the titrated virus was used to infect MT-2 cells in the presence of compound, and after 5 days of incubation, cells were processed and quantitated for virus growth by the amount of expressed luciferase. Assay media was RPMI 1640 supplemented with 10% heat inactivated fetal bovine serum (FBS), 100 units/ml penicillin G/100 units/ml streptomycin, 10 mM HEPES buffer pH 7.55 and 2 mM L-glutamine. The results from at least 2 experiments were used to calculate the EC50 values. Luciferase was quantitated using the Dual Luciferase kit from Promega (Madison, Wis.). Susceptibility of viruses to compounds was determined by incubation in the presence of serial dilutions of the compound. The 50% effective concentration (EC50) was calculated by using the exponential form of the median effect equation where (Fa)=1/[1+(ED50/drug conc.)^m](Johnson V A, Byington R T. Infectivity Assay. In Techniques in HIV Research. ed. Aldovini A, Walker B D. 71-76. New York: Stockton Press.1990). Activity equal to A refers to a compound having an EC50≤100 nM, while B and C denote compounds having an EC50 between 100 nM and 1 uM (B) or >1 uM (C).

| SMILES | EC50 (read-out: Activity) | EC50 (read-out: EC50 μM) |
| --- | --- | --- |
| Cc1nc(CNC2CCOCC2)c(-c2ccc(OCCc3ccc(F)cc3)cc2)c(N2CCC3(CCC3)CC2)c1[C@H](OC(C)(C)C)C(=O)O [Example 55, (S)-2-(tert-Butoxy)-2-(5-(4-(4-fluorophenethoxy)phenyl)-2-methyl-4-(7-azaspiro[3.5]nonan-7-yl)-6-(((tetrahydro-2H-pyran-4-yl)amino)methyl)pyridin-3-yl)acetic acid] | < 0.1 µM | 0.001 µM |
| Cc1nc(C)c([C@H](OC(C)(C)C)C(=O)O)c(N2CCC3(CCC3)CC2)c1-c1ccc(C(=O)NCc2ccccc2)c(F)c1 [Example 31, (S)-2-(5-(4-(Benzylcarbamoyl)-3-fluorophenyl)-2,6-dimethyl-4-(7-azaspiro[3.5]nonan-7-yl)pyridin-3-yl)-2-(tert-butoxy)acetic acid] | < 0.1 µM |  |
| Cc1nc(C)c([C@H](OC(C)(C)C)C(=O)O)c(N2CCC3(CC2)CC3)c1-c1ccc(OCCc2ccc(F)cc2)cc1 [Example 16, (S)-2-(tert-Butoxy)-2-(5-(4-(4-fluorophenethoxy)phenyl)-2,6-dimethyl-4-(6-azaspiro[2.5]octan-6-yl)pyridin-3-yl)acetic acid] | < 0.1 µM | 0.003 µM |
| COc1ccc(NCc2nc(C)c([C@H](OC(C)(C)C)C(=O)O)c(N3CCC4(CCC4)CC3)c2-c2ccc(OCCc3ccc(F)cc3)cc2)cc1 [Example 47, (S)-2-(tert-Butoxy)-2-(5-(4-(4-fluorophenethoxy)phenyl)-6-(((4-methoxyphenyl)-amino)methyl)-2-methyl-4-(7-azaspiro[3.5]nonan-7-yl)pyridin-3-yl)acetic acid] | < 0.1 µM |  |
| Cc1nc(C)c([C@H](OC(C)(C)C)C(=O)O)c(N2CC[C@H]3CCCC[C@H]3C2)c1-c1ccc(C(=O)NCc2ccccc2)cc1 [Example 11, (S)-2-(5-(4-(Benzylcarbamoyl)phenyl)-2,6-dimethyl-4-((4aR,8aR)-octahydroisoquinolin-2(1H)-yl)pyridin-3-yl)-2-(tert-butoxy)acetic acid] | < 0.1 µM |  |
| Cc1nc(C)c([C@H](OC(C)(C)C)C(=O)O)c(N2CCC3(CCCCC3)C2)c1-c1ccc(OCCc2ccc(F)cc2)cc1 [Example 62, (S)-2-(tert-Butoxy)-2-(5-(4-(4-fluorophenethoxy)phenyl)-2,6-dimethyl-4-(2-azaspiro[4.5]decan-2-yl)pyridin-3-yl)acetic acid] | < 0.1 µM | 0.017 µM |
| Cc1nc(COC2CCOCC2)c(-c2ccc(OCCc3ccc(F)cc3)cc2)c(N2CCC3(CCC3)CC2)c1[C@H](OC(C)(C)C)C(=O)O [Example 52, (S)-2-(tert-Butoxy)-2-(5-(4-(4-fluorophenethoxy)phenyl)-2-methyl-4-(7-azaspiro[3.5]nonan-7-yl)-6-(((tetrahydro-2H-pyran-4-yl)oxy)methyl)pyridin-3-yl)acetic acid] | < 0.1 µM |  |
| Cc1nc(C)c([C@H](OC(C)(C)C)C(=O)O)c(N2CCC3(CCCCC3)CC2)c1-c1ccc(OCCc2ccc(F)cc2)cc1 [Example 60, (S)-2-(tert-Butoxy)-2-(5-(4-(4-fluorophenethoxy)phenyl)-2,6-dimethyl-4-(3-azaspiro[5.5]undecan-3-yl)pyridin-3-yl)acetic acid] | < 0.1 µM |  |
| Cc1nc(CN(C)CC2CCCCC2)c(-c2ccc(OCCc3ccc(F)cc3)cc2)c(N2CCC3(CCC3)CC2)c1[C@H](OC(C)(C)C)C(=O)O [Example 59, (S)-2-(tert-Butoxy)-2-(6-(((cyclohexylmethyl)(methyl)amino)methyl)-5-(4-(4-fluorophenethoxy)phenyl)-2-methyl-4-(7-azaspiro[3.5]nonan-7-yl)pyridin-3-yl)acetic acid] | < 0.1 µM |  |
| Cc1nc(C)c([C@H](OC(C)(C)C)C(=O)O)c(N2CCC3(CCC3)CC2)c1-c1ccc(OCCc2ccc(F)cc2)cc1 [Example 27, (S)-2-(tert-Butoxy)-2-(5-(4-(4-fluorophenethoxy)phenyl)-2,6-dimethyl-4-(7-azaspiro[3.5]nonan-7-yl)pyridin-3-yl)acetic acid] | < 0.1 µM |  |
| Cc1nc(CNCC2CCOCC2)c(-c2ccc(OCCc3ccc(F)cc3)cc2)c(N2CCC3(CCC3)CC2)c1[C@H](OC(C)(C)C)C(=O)O [Example 45, (S)-2-(tert-Butoxy)-2-(5-(4-(4-fluorophenethoxy)phenyl)-2-methyl-4-(7-azaspiro[3.5]nonan-7-yl)-6-((((tetrahydro-2H-pyran-4-yl)methyl)amino)methyl)pyridin-3-yl)acetic acid] | < 0.1 µM |  |
| Cc1nc(C)c([C@H](OC(C)(C)C)C(=O)O)c(N2CCC3(CCNC3)CC2)c1-c1ccc(C(=O)NCc2ccccc2)cc1 [Example 69, (S)-2-(5-(4-(Benzylcarbamoyl)phenyl)-2,6-dimethyl-4-(2,8-diazaspiro[4.5]decan-8-yl)pyridin-3-yl)-2-(tert-butoxy)acetic acid] | > 1 µM | 9.66 µM |
| COCCNCc1nc(C)c([C@H](OC(C)(C)C)C(=O)O)c(N2CCC3(CCC3)CC2)c1-c1ccc(OCCc2ccc(F)cc2)cc1 [Example 42, (S)-2-(tert-Butoxy)-2-(5-(4-(4-fluorophenethoxy)phenyl)-6-(((2-methoxyethyl)amino)methyl)-2-methyl-4-(7-azaspiro[3.5]nonan-7-yl)pyridin-3-yl)acetic acid] | < 0.1 µM | 0.002 µM |
| COc1cc(-c2c(C)nc(C)c([C@H](OC(C)(C)C)C(=O)O)c2N2CCC3(CCCC3)CC2)ccc1C(=O)NCc1ccccc1 [Example 25, (S)-2-(5-(4-(Benzylcarbamoyl)-3-methoxyphenyl)-2,6-dimethyl-4-(8-azaspiro[4.5]decan-8-yl)pyridin-3-yl)-2-(tert-butoxy)acetic acid] | < 0.1 µM |  |
| Cc1nc(C)c([C@H](OC(C)(C)C)C(=O)O)c(N2CCC3(CCCC3)C2)c1-c1ccc(C(=O)NCc2ccccc2)cc1 [Example 15, (S)-2-(5-(4-(Benzylcarbamoyl)phenyl)-2,6-dimethyl-4-(2-azaspiro[4.4]nonan-2-yl)pyridin-3-yl)-2-(tert-butoxy)acetic acid] | < 0.1 µM |  |
| Cc1nc(C)c([C@H](OC(C)(C)C)C(=O)O)c(N2CCC3(CC2)CC3)c1-c1ccc(C(=O)NCc2ccccc2)cc1 [Example 17, (S)-2-(5-(4-(Benzylcarbamoyl)-phenyl)-2,6-dimethyl-4-(6-azaspiro[2.5]octan-6-yl)pyridin-3-yl)-2-(tert-butoxy)acetic acid] | < 0.1 µM |  |
| Cc1nc(CN2CCCC2)c(-c2ccc(OCCc3ccc(F)cc3)cc2)c(N2CCC3(CCC3)CC2)c1[C@H](OC(C)(C)C)C(=O)O [Example 44, (S)-2-(tert-Butoxy)-2-(5-(4-(4-fluorophenethoxy)phenyl)-2-methyl-6-(pyrrolidin-1-ylmethyl)-4-(7-azaspiro[3.5]nonan-7-yl)pyridin-3-yl)acetic acid] | < 0.1 µM |  |
| Cc1nc(C)c([C@H](OC(C)(C)C)C(=O)O)c(N2CCC3(CCCCCC3)C2)c1-c1ccc(OCCc2ccc(F)cc2)cc1 [Example 64, (S)-2-(tert-Butoxy)-2-(5-(4-(4-fluorophenethoxy)phenyl)-2,6-dimethyl-4-(2-azaspiro[4.6]undecan-2-yl)pyridin-3-yl)acetic acid] | < 0.1 µM |  |
| Cc1nc(C)c([C@H](OC(C)(C)C)C(=O)O)c(N2CC3C(C2)C3(C)C)c1-c1ccc(OCCc2ccc(F)cc2)cc1 (stereo partly drawn) [Example 8, (2S)-2-(tert-Butoxy)-2-(4-(6,6-dimethyl-3-azabicyclo[3.1.0]hexan-3-yl)-5-(4-(4-fluorophenethoxy)phenyl)-2,6-dimethyl-pyridin-3-yl)acetic acid] | < 0.1 µM |  |
| Cc1nc(C)c([C@H](OC(C)(C)C)C(=O)O)c(N2CCc3ccccc3C2)c1-c1ccc(OCCc2ccc(F)cc2)cc1 [Example 10, (S)-2-(tert-Butoxy)-2-(4-(3,4-dihydroisoquinolin-2(1H)-yl)-5-(4-(4-fluorophenethoxy)phenyl)-2,6-dimethylpyridin-3-yl)acetic acid] | < 0.1 µM |  |
| Cc1nc(CNCC2CCCCC2)c(-c2ccc(OCCc3ccc(F)cc3)cc2)c(N2CCC3(CCC3)CC2)c1[C@H](OC(C)(C)C)C(=O)O [Example 56, (S)-2-(tert-Butoxy)-2-(6-(((cyclohexylmethyl)amino)methyl)-5-(4-(4-fluorophenethoxy)phenyl)-2-methyl-4-(7-azaspiro[3.5]nonan-7-yl)pyridin-3-yl)acetic acid] | < 0.1 µM |  |
| Cc1cc(F)ccc1CN1CCc2cc(-c3c(C)nc(C)c([C@H](OC(C)(C)C)C(=O)O)c3N3CCC4(CCC4)CC3)ccc2C1 [Example 35, (S)-2-(tert-Butoxy)-2-(5-(2-(4-fluoro-2-methylbenzyl)-1,2,3,4-tetrahydroisoquinolin-6-yl)-2,6-dimethyl-4-(7-azaspiro[3.5]nonan-7-yl)pyridin-3-yl)acetic acid] | < 0.1 µM | 0.006 µM |
| Cc1nc(CO)c([C@H](OC(C)(C)C)C(=O)O)c(N2CCC3(CCC3)CC2)c1-c1ccc(OCCc2ccc(F)cc2)cc1 [Example 39, (S)-2-(tert-Butoxy)-2-(5-(4-(4-fluorophenethoxy)phenyl)-2-(hydroxymethyl)-6-methyl-4-(7-azaspiro[3.5]nonan-7-yl)pyridin-3-yl)acetic acid] | < 0.1 µM |  |

— patent publication US20190010139A1 (priority 2015, published 2019)
